This assay deals with T1, human P2X4 (Homo sapiens, UniProt Q99571).
T1 construct: expressed in transfected cells
T1 sequence (Q99571 1-388): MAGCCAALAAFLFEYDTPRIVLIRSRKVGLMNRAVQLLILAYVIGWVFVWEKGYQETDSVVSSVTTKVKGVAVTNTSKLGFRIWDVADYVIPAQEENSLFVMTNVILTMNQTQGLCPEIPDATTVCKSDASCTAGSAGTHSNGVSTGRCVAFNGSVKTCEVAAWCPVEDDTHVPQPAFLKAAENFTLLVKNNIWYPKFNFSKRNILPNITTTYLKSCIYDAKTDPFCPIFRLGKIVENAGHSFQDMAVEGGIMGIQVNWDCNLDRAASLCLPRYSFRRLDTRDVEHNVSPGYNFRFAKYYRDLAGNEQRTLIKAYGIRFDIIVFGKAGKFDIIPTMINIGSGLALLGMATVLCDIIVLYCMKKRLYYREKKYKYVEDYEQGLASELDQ
In words: Human P2X4 HEK Cell FLIPR Assay. The note with it: HEK293 stably expressing human P2X4, agonist Bz-ATP 3 μM (EC80); for IC50: read-out: Human P2X4 HEK Cells (FLIPR Assay) avg IC50. It is filed as cell-based. The protocol:
Compounds were tested on a HEK293 cell line stably expressing human P2X4. Cells were cultured on poly-D-lysine-coated 384-well plates at a density of 15,000 cells/well and incubated overnight at 37° C., 5% CO2. P2X4 function was assessed by measuring intracellular calcium fluxes caused by Benzoylbenzoyl-ATP (Bz-ATP) using the calcium-chelating dye Fluo8-AM (Molecular Devices) with the Fluorescent Imaging Plate Reader Tetra (FLIPR^Tetra; Molecular Devices CA). On the day of the assay, the medium was removed and the cells were incubated for 30 min at 37° C. and 5% CO2 in 30 μl of dye buffer (Hank's balanced salt solution, 10 mM HEPES, 1.8 mM CaCl2, 1 mM MgCl2, 2 mM probenecid, 5 mM D-glucose monohydrate, 5 μM Fluo8-AM, pH=7.4). Compounds diluted in probenecid buffer (Hank's balanced salt solution, 10 mM HEPES, 1.8 mM CaCl2, 1 mM MgCl2, 2 mM probenecid, 5 mM D-glucose monohydrate, pH=7.4) at ten concentrations ranging from 25 μM to 1 nM (final concentration) were dispensed and incubated for 30 min at room temperature. […] The final assay volume was 50 μl and final DMSO concentration was 0.5%.
The fluorescence intensity reflecting intracellular calcium changes was recorded before and after Bz-ATP addition, at an excitation and emission wavelengths of 470-495 nm and 515-575 nm respectively.
The compounds were tested in triplicates and fluorescence intensity raw data normalized to the agonist control and fitted to the four-parameter logistic equation:
Y=Bottom+(Top−Bottom)/(1+10^((Log IC50−X)*HillSlope))
Assay plate acceptance was based on the signal window (S/B)[…] and the reference compound pIC50 within ±3σ the mean of historic pIC50 of the compound. Failure to meet two of the three criteria determined exclusion of the plate's results.

Broadly, the IC50 is the concentration at which inhibition is half-maximal. Consider `CC(=O)N(c1cccc(C(F)F)c1)c1cc(NC(=O)Cc2ccc(F)cc2Cl)ccn1` [Example 3, N-{4-[2-(2-chloro-4-fluorophenyl)acetamido]pyridin-2-yl}-N-[3-(difluoromethyl)phenyl]acetamide], for which the “Human P2X4 HEK Cells (FLIPR Assay) avg Efficacy” value (“Human P2X4 HEK Cells” below) amounted to 98% and the IC50 came out at 0.657 µM.
On to `CC(=O)N(c1cccc(C(F)(F)F)c1)c1cc(NC(=O)Cc2ccccc2Cl)ccn1` [Example 6, N-{4-[2-(2-chlorophenyl)acetamido]pyridin-2-yl}-N-[3-(trifluoromethyl)phenyl]acetamide], for which the “Human P2X4 HEK Cells” value is reported as 97% and the IC50 was found to be 0.689 µM.
Taken in the same sequence, the figures for `CC(=O)N(c1cccc(C(F)(F)F)c1)c1cc(NC(=O)Cc2ccc(F)cc2Cl)ccn1` [Example 7, N-{4-[2-(2-chloro-4-fluorophenyl)acetamido]pyridin-2-yl}-N-[3-(trifluoromethyl)phenyl]acetamide] were 97% and 0.846 µM.
Consider `CC(=O)N(c1cccc(C(F)(F)F)c1)c1cc(NC(=O)Cc2cccc(F)c2Cl)ccn1` [Example 8, N-{4-[2-(2-chloro-3-fluorophenyl)acetamido]pyridin-2-yl}-N-[3-(trifluoromethyl)phenyl]acetamide], for which the “Human P2X4 HEK Cells” value is on record as 97% and the IC50 amounted to 0.681 µM.
Consider `CC(=O)N(c1cccc(C(F)(F)F)c1)c1cc(NC(=O)Cc2c(Cl)cccc2Cl)ccn1` [Example 9, N-{4-[2-(2,6-dichlorophenyl)acetamido]pyridin-2-yl}-N-[3-(trifluoromethyl)phenyl]acetamide], for which the “Human P2X4 HEK Cells” value is recorded as 99% and the IC50 is 0.749 µM.
Regarding `CC(=O)N(c1ccc(C#N)c(C(F)(F)F)c1)c1cc(NC(=O)Cc2ccccc2Cl)ccn1` [Example 10, N-{4-[2-(2-chlorophenyl)acetamido]pyridin-2-yl}-N-[4-cyano-3-(trifluoromethyl)phenyl]acetamide], the “Human P2X4 HEK Cells” value is listed as 94%.
On the same count and under the same terms, next, `CC(=O)N(c1ccc(C#N)c(C(F)(F)F)c1)c1cc(NC(=O)Cc2cccc(F)c2Cl)ccn1` [Example 11, N-{4-[2-(2-chloro-3-fluorophenyl)acetamido]pyridin-2-yl}-N-[4-cyano-3-(trifluoromethyl)phenyl]acetamide]: 100%; `CC(=O)N(c1ccc(C#N)c(C(F)(F)F)c1)c1cc(NC(=O)Cc2c(Cl)cccc2Cl)ccn1` [Example 12, N-[4-cyano-3-(trifluoromethyl)phenyl]-N-{4-[2-(2,6-dichlorophenyl)acetamido]pyridin-2-yl}acetamide]: 101%.
Take `CC(=O)N(c1ccc(Cl)c(C#N)c1)c1cc(NC(=O)Cc2ccccc2Cl)ccn1` [Example 16, N-(4-chloro-3-cyanophenyl)-N-{4-[2-(2-chlorophenyl)acetamido]pyridin-2-yl}acetamide]: the “Human P2X4 HEK Cells” value was found to be 95% and the IC50 was 0.388 µM.
In the case of `CC(=O)N(c1ccc(Cl)c(C#N)c1)c1cc(NC(=O)Cc2ccc(F)cc2Cl)ccn1` [Example 17, N-(4-chloro-3-cyanophenyl)-N-{4-[2-(2-chloro-4-fluorophenyl)acetamido]pyridin-2-yl)acetamide], the “Human P2X4 HEK Cells” value is given as 99% and the IC50 came to 0.638 µM.
`CC(=O)N(c1ccc(Cl)c(C#N)c1)c1cc(NC(=O)Cc2cccc(F)c2Cl)ccn1` [Example 18, N-(4-chloro-3-cyanophenyl)-N-{4-[2-(2-chloro-3-fluorophenyl)acetamido]pyridin-2-yl}acetamide]: the “Human P2X4 HEK Cells” value came out at 99% and the IC50 was determined as 0.437 µM.
As for `CC(=O)N(c1ccc(Cl)c(C#N)c1)c1cc(NC(=O)Cc2c(Cl)cccc2Cl)ccn1` [Example 19, N-(4-chloro-3-cyanophenyl)-N-{4-[2-(2,6-dichlorophenyl)acetamido]pyridin-2-yl}acetamide], the “Human P2X4 HEK Cells” value is listed as 103% and the IC50 came to 0.542 µM.
Consider `CC(=O)N(c1ccc(F)c(C#N)c1)c1cc(NC(=O)Cc2cccc(C(F)(F)F)c2Cl)ccn1` [Example 20, N-(4-{2-[2-chloro-3-(trifluoromethyl)phenyl]acetamido}pyridin-2-yl)-N-(3-cyano-4-fluorophenyl)acetamide], for which the “Human P2X4 HEK Cells” value amounted to 99% and the IC50 worked out at 0.748 µM.
Turning to `CC(=O)N(c1ccccc1)c1cc(NC(=O)Cc2c(F)cccc2Cl)ccn1` [Example 28, N-{4-[2-(2-chloro-6-fluorophenyl)acetamido]pyridin-2-yl}-N-phenylacetamide], the “Human P2X4 HEK Cells” value is listed as 91% and the IC50 turned out to be 0.777 µM.
On the same counts, the results for `CC(=O)N(c1ccc(F)cc1)c1cc(NC(=O)Cc2ccc(Cl)cc2C(F)(F)F)ccn1` [Example 31, N-(4-{2-[4-chloro-2-(trifluoromethyl)phenyl]acetamido}pyridin-2-yl)-N-(4-fluorophenyl)acetamide] are 100% and 0.909 µM.
As to `CC(=O)N(c1ccc(F)cc1)c1cc(NC(=O)Cc2cccc(C(F)(F)F)c2Cl)ccn1` [Example 35, N-(4-{2-[2-chloro-3-(trifluoromethyl)phenyl]acetamido}pyridin-2-yl)-N-(4-fluorophenyl)acetamide], the “Human P2X4 HEK Cells” value came out at 99% and the IC50 turned out to be 0.938 µM.
Turning to `CC(=O)N(c1ccc(C)cc1)c1cc(NC(=O)Cc2ccccc2Cl)ccn1` [Example 43, N-{4-[2-(2-chlorophenyl)acetamido]pyridin-2-yl}-N-(4-methylphenyl)acetamide], the “Human P2X4 HEK Cells” value was found to be 100% and the IC50 is 0.406 µM.
On the same counts, the results for `CC(=O)N(c1ccc(C)cc1)c1cc(NC(=O)Cc2ccc(F)cc2Cl)ccn1` [Example 44, N-{4-[2-(2-chloro-4-fluorophenyl)acetamido]pyridin-2-yl}-N-(4-methylphenyl)acetamide] are 99% and 0.607 µM.
Consider `CC(=O)N(c1ccc(C)cc1)c1cc(NC(=O)Cc2c(Cl)cccc2Cl)ccn1` [Example 46, N-{4-[2-(2,6-dichlorophenyl)acetamido]pyridin-2-yl}-N-(4-methylphenyl)acetamide], for which the “Human P2X4 HEK Cells” value is 103% and the 50% inhibitory concentration (IC50) is 0.551 µM.
Consider `CC(=O)N(c1ccc(OC(F)F)cc1)c1cc(NC(=O)Cc2ccccc2Cl)ccn1` [Example 47, N-{4-[2-(2-chlorophenyl)acetamido]pyridin-2-yl}-N-[4-(difluoromethoxy)phenyl]acetamide], for which the “Human P2X4 HEK Cells” value amounted to 98% and the IC50 worked out at 0.519 µM.
For the compound `CC(=O)N(c1ccc(OC(F)F)cc1)c1cc(NC(=O)Cc2cccc(F)c2Cl)ccn1` [Example 48, N-{4-[2-(2-chloro-3-fluorophenyl)acetamido]pyridin-2-yl}-N-[4-(difluoromethoxy)phenyl]acetamide], the “Human P2X4 HEK Cells” value turned out to be 99% and the IC50 was 0.579 µM.
As for `CC(=O)N(c1ccc(OC(F)F)cc1)c1cc(NC(=O)Cc2c(Cl)cccc2Cl)ccn1` [Example 49, N-{4-[2-(2,6-dichlorophenyl)acetamido]pyridin-2-yl}-N-[4-(difluoromethoxy)phenyl]acetamide], the “Human P2X4 HEK Cells” value turned out to be 100% and the 50% inhibitory concentration (IC50) stood at 0.52 µM.
Consider `CC(=O)N(c1ccc(Cl)c(F)c1)c1cc(NC(=O)Cc2c(Cl)cccc2Cl)ccn1` [Example 61, N-(4-chloro-3-fluorophenyl)-N-{4-[2-(2,6-dichlorophenyl)acetamido]pyridin-2-yl)acetamide], for which the “Human P2X4 HEK Cells” value came out at 98% and the IC50 is 0.604 µM.
`CCc1cc(Cl)c(CC(=O)Nc2ccnc(N(C(C)=O)c3ccc(F)c(F)c3)c2)c(Cl)c1` [Example 75, N-{4-[2-(2,6-dichloro-4-ethylphenyl)acetamido]pyridin-2-yl}-N-(3,4-difluorophenyl)acetamide]: the “Human P2X4 HEK Cells” value amounted to 96% and the IC50 turned out to be 0.919 µM.

These data come from patent publication US20230257351A1, “SUBSTITUTED N-[…] HAVING P2X4 RECEPTOR ANTAGONISTIC ACTIVITY” (Bayer Aktiengesellschaft, priority 2020, published 2023).
